IC50 data for 26 compounds are collected here from patent publication US8895550B2, “Triazolopyridine compounds as PIM kinase inhibitors” (Array BioPharma Inc., priority 2008, dated 2014).

Usually IC50 stands for the concentration that inhibits the measured activity by half.

What all share (assay type): biochemical
For one assay, the target named is PIM-1 (Homo sapiens, UniProt P11309). Description: Enzyme PIM-1 Assay (radiometric [33P]ATP incorporation into PIM2tide, filter plate). The conditions noted are these: 35 μM ATP, 7.5 μM PIM2tide, 0.25 nM PIM-1, 60 min at 22° C.; high dose 10 μM. On the procedure: (§1) The assay for the determination of PIM-1 activity is based on the incorporation of [^33P]PO4 from [γ-^33P]ATP into PIM2tide substrate and capture of the radiolabeled peptide onto a Whatman P81 (phosphocellulose) filter plate. The amount of radiolabeled product is then measured by liquid scintillation counting. The final buffer conditions were as follows: 20 mM K^+MOPS, pH 7.4, 10 mM MgCl2, 0.005% Tween-20, 1 mM DTT. Assay mixtures contained 35 μM [γ-^33P]ATP (20 μCi/mL), 7.5 μM PIM2tide and 0.25 nM PIM-1 in a total volume of 50 μL. Incubations were carried out for 60 min at 22° C. and quenched with 75 μL, of 200 mM H3PO4, filtered through a Whatman P81 plate and washed (1×200 μL and 5×100 μL) with 200 mM H3PO4. Fifty μL of liquid scintillation cocktail were then added per well, and the plate was counted for 30 s/well using a TopCount NXT.
(§2) Compounds were prepared at 50× the final concentration in DMSO by conducting 3-fold serial dilutions from a 500-μM intermediate dilution to give a 10-point dosing curve having a high dose of 10 μM. One-μL aliquots of these were then transferred to the assay mixtures above to give a final concentration of DMSO of 2%. A standard or reference compound was typically included on each assay plate to validate that plate. For each plate, percent of control (POC) values were calculated for each well. IC50's were estimated from the POC's using a standard 4-parameter logistic model. The IC50 is defined as the concentration of inhibitor at which the POC equals 50 for the fitted curve.

In assay [1] the target is T1, GST-tagged recombinant full-length human Pim-2 (Homo sapiens, UniProt Q9P1W9).
T1 construct: GST-tagged recombinant full-length human Pim-2; GST
Description: PIM-2 Assay (as Example A with GST-tagged recombinant full-length human Pim-2). The conditions noted are these: 4 μM ATP, 1.0 μM PIM2tide, 1.5 nM Pim-2; high dose 10 μM. As to the method: as §1, §2
Assay was performed as described in Example A, using 4 μM [γ-^33P]ATP (20 μCi/mL), 1.0 μM PIM2tide and 1.5 nM GST-tagged recombinant full-length human Pim-2 in place of PIM-1.

For the next assay, the target named is recombinant rat PIM-3 (Rattus norvegicus, UniProt O70444). Description: PIM-3 Assay (as Example A with recombinant rat PIM-3). The conditions noted are these: 30 μM ATP, 3.75 μM PIM2tide, 0.5 nM PIM-3; high dose 10 μM. As to the method:
as §1, §2
Assay was performed as described in Example A, using 30 μM [γ-^33P]ATP (20 μCi/mL), 3.75 μM PIM2tide and 0.5 nM recombinant rat PIM-3 in place of PIM-1.

A value given as a limit tells only on which side of the number the result lay.

T1 sequence (Q9P1W9 whole entry): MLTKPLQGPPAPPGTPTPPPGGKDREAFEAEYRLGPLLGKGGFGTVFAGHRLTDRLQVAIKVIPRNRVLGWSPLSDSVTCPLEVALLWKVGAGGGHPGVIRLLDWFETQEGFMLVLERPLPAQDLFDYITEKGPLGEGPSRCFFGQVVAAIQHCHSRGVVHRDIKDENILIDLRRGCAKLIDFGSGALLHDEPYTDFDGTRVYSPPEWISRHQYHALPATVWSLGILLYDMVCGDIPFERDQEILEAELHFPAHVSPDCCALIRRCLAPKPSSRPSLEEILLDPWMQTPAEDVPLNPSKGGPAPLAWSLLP
Chain of PIM-1 (P11309 whole entry, species assumed): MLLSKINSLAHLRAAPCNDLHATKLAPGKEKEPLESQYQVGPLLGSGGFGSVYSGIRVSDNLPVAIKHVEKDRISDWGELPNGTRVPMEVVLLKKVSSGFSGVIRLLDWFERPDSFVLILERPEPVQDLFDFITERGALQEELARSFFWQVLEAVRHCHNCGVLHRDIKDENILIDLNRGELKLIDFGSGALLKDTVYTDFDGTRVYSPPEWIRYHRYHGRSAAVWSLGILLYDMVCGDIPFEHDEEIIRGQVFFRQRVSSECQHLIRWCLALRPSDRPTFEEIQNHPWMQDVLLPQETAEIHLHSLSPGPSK

As for `N[C@@H]1CCN(c2cccc3ccc(-c4nnc5ccccn45)nc23)C[C@@H]1F` (relative stereo) [Example 27, (cis)-1-(2-([1,2,4]triazolo[4,3-a]pyridin-3-yl)quinolin-8-yl)-3-fluoropiperidin-4-amine], the concentration for half-maximal inhibition (IC50) on PIM-1 came to 34 nM; in assay [1], 570 nM; on recombinant rat PIM-3 it was 38 nM.
The matching figures for `COCCOc1ccn2c(-c3ccc4cccc(N5CCNCC5)c4n3)nnc2c1` [Example 1, 2-(7-(2-Methoxyethoxy)-[1,2,4]triazolo[4,3-a]pyridin-3-yl)-8-(piperazin-1-yl)quinoline]: 255 nM, no less than 10000 nM and 554 nM.
With `COc1ccn2c(-c3ccc4cccc(N5CCNCC5)c4n3)nnc2c1` [Example 2, 2-(7-Methoxy-[1,2,4]triazolo[4,3-a]pyridin-3-yl)-8-(piperazin-1-yl)quinoline], the IC50 at PIM-1 is 179 nM; in assay [1], no less than 10000 nM.
Regarding `COc1ccn2c(-c3ccc4cccc(N5CCC(N)CC5)c4n3)nnc2c1` [Example 3, 1-(2-(7-Methoxy-[1,2,4]triazolo[4,3-a]pyridin-3-yl)quinolin-8-yl)piperidin-4-amine], the IC50 at PIM-1 is 24 nM; in assay [1], 2310 nM; on recombinant rat PIM-3 it was 60 nM.
For the compound `COc1ccn2c(-c3ccc4cccc(N5CCOCC5)c4n3)nnc2c1` [Example 4, 4-(2-(7-Methoxy-[1,2,4]triazolo[4,3-a]pyridin-3-yl)quinolin-8-yl)morpholine], the IC50 is 2790 nM at PIM-1 and no less than 10000 nM in assay [1].
As to `c1cc(N2CCCCC2)c2nc(-c3nnc4ccccn34)ccc2c1` [Example 5, 2-([1,2,4]Triazolo[4,3-a]pyridin-3-yl)-8-(piperidin-1-yl)quinoline], the IC50 against PIM-1 came out at 24 nM; in assay [1] it was 2600 nM; at recombinant rat PIM-3, 121 nM.
Regarding `c1cc(N2CCNCC2)c2nc(-c3nnc4ccccn34)ccc2c1` [Example 6, 2-([1,2,4]Triazolo[4,3-a]pyridin-3-yl)-8-(piperazin-1-yl)quinoline], the 50% inhibitory concentration (IC50) was determined as 31 nM against PIM-1, 2980 nM in assay [1] and 105 nM on recombinant rat PIM-3.
The matching figures for `C[C@@H]1CN(c2cccc3ccc(-c4nnc5ccccn45)nc23)CCN1` [Example 7, (R)-2-([1,2,4]Triazolo[4,3-a]pyridin-3-yl)-8-(3-methylpiperazin-1-yl)quinoline]: 17 nM, 3590 nM and 105 nM.
The matching figures for `C[C@@H]1CN(c2cccc3ccc(-c4nnc5ccccn45)nc23)C[C@H](C)N1` [Example 8, 2-([1,2,4]Triazolo[4,3-a]pyridin-3-yl)-8-((cis)-3,5-dimethylpiperazin-1-yl)quinoline]: 54 nM, no less than 10000 nM and 189 nM.
`NC1CCN(c2cccc3ccc(-c4nnc5ccccn45)nc23)CC1` [Example 9, 1-(2-([1,2,4]Triazolo[4,3-a]pyridin-3-yl)quinolin-8-yl)piperidin-4-amine]: the results for the concentration for half-maximal inhibition (IC50) (at PIM-1; in assay [1]; at recombinant rat PIM-3) were 11 nM, 543 nM and 24 nM, respectively.
The matching figures for `NCC1CCN(c2cccc3ccc(-c4nnc5ccccn45)nc23)CC1` [Example 10, (1-(2-([1,2,4]Triazolo[4,3-a]pyridin-3-yl)quinolin-8-yl)piperidin-4-yl)methanamine]: 3 nM, 224 nM and 13 nM.
Regarding `NCC1CCN(c2cccc3ccc(-c4nnc5cc(CO)ccn45)nc23)CC1` [Example 11, (3-(8-(4-(Aminomethyl)piperidin-1-yl)quinolin-2-yl)-[1,2,4]triazolo[4,3-a]pyridin-7-yl)methanol], the half-inhibitory concentration (IC50) at PIM-1 amounted to 84 nM; in assay [1], 2600 nM; at recombinant rat PIM-3, 217 nM.
In the same order, the values of `CCNCc1ccn2c(-c3ccc4cccc(N5CCC(CN)CC5)c4n3)nnc2c1` [Example 12, N-((3-(8-(4-(aminomethyl)piperidin-1-yl)quinolin-2-yl)-[1,2,4]triazolo[4,3-a]pyridin-7-yl)methyl)ethanamine] are 3 nM, 92 nM and 4 nM.
In the same order, the values of `NCc1ccn2c(-c3ccc4cccc(N5CCC(CN)CC5)c4n3)nnc2c1` [Example 13, (1-(2-(7-(Aminomethyl)-[1,2,4]triazolo[4,3-a]pyridin-3-yl)quinolin-8-yl)piperidin-4-yl)methanamine] are 2 nM, 29 nM and 4 nM.
The matching figures for `NCC1CCN(c2cccc3ccc(-c4nnc5cc(C(O)CO)ccn45)nc23)CC1` (stereo not drawn) [Example 14, 1-(3-(8-(4-(Aminomethyl)piperidin-1-yl)quinolin-2-yl)-[1,2,4]triazolo[4,3-a]pyridin-7-yl)ethane-1,2-diol]: 4 nM, 509 nM and 20 nM.
In the case of `OCC1CCCN(c2cccc3ccc(-c4nnc5ccccn45)nc23)C1` (stereo not drawn) [Example 15, (1-(2-([1,2,4]Triazolo[4,3-a]pyridin-3-yl)quinolin-8-yl)piperidin-3-yl)methanol], the 50% inhibitory concentration (IC50) at PIM-1 was determined as 15 nM; in assay [1], 2080 nM.
Turning to `NCC1CCN(c2cc(F)cc3ccc(-c4nnc5ccccn45)nc23)CC1` [Example 16, (1-(2-([1,2,4]triazolo[4,3-a]pyridin-3-yl)-6-fluoroquinolin-8-yl)piperidin-4-yl)methanamine], the figures for the concentration for half-maximal inhibition (IC50) (at PIM-1; in assay [1]; on recombinant rat PIM-3) were 3 nM, 185 nM and 10 nM, respectively.
The matching figures for `NCC1CCN(c2ccc(F)c3ccc(-c4nnc5ccccn45)nc23)CC1` [Example 17, (1-(2-([1,2,4]triazolo[4,3-a]pyridin-3-yl)-5-fluoroquinolin-8-yl)piperidin-4-yl)methanamine]: 77 nM, 1960 nM and 51 nM.
In the same order, the values of `NCC1CCN(c2cc(Cl)cc3ccc(-c4nnc5ccccn45)nc23)CC1` [Example 18, (1-(2-([1,2,4]Triazolo[4,3-a]pyridin-3-yl)-6-chloroquinolin-8-yl)piperidin-4-yl)methanamine] are 32 nM, 736 nM and 25 nM.
In the case of `CC1CCCN(c2cccc3ccc(-c4nnc5ccccn45)nc23)C1` (stereo not drawn) [Example 19, 2-([1,2,4]triazolo[4,3-a]pyridin-3-yl)-8-(3-methylpiperidin-1-yl)quinoline], the IC50 amounted to 18 nM on PIM-1 and 1800 nM in assay [1].
In the same order, the values of `OC1CCCN(c2cccc3ccc(-c4nnc5ccccn45)nc23)C1` (stereo not drawn) [Example 20, 1-(2-([1,2,4]triazolo[4,3-a]pyridin-3-yl)quinolin-8-yl)piperidin-3-ol] are 48 nM and 2380 nM.
On to `N[C@@H]1CCCN(c2cccc3ccc(-c4nnc5ccccn45)nc23)C1` [Example 21, (R)-1-(2-([1,2,4]triazolo[4,3-a]pyridin-3-yl)quinolin-8-yl)piperidin-3-amine], for which the IC50 against PIM-1 is 7 nM; in assay [1], 142 nM.
In the same order, the values of `N[C@H]1CCCN(c2cccc3ccc(-c4nnc5ccccn45)nc23)C1` [Example 22, (S)-1-(2-([1,2,4]triazolo[4,3-a]pyridin-3-yl)quinolin-8-yl)piperidin-3-amine] are 270 nM and 3100 nM.
Consider `CC1(C)CN(c2cccc3ccc(-c4nnc5ccccn45)nc23)CCN1` [Example 23, 2-([1,2,4]triazolo[4,3-a]pyridin-3-yl)-8-(3,3-dimethylpiperazin-1-yl)quinoline], for which the IC50 at PIM-1 amounted to 22 nM; in assay [1], 647 nM; on recombinant rat PIM-3 it was 62 nM.
As to `Cc1nc(CN2CCN(c3cccc4ccc(-c5nnc6ccccn56)nc34)CC2)cs1` [Example 24, 4-((4-(2-([1,2,4]triazolo[4,3-a]pyridin-3-yl)quinolin-8-yl)piperazin-1-yl)methyl)-2-methylthiazole], the IC50 was 150 nM at PIM-1 and no less than 10000 nM in assay [1].
Consider `CC1CCCN(c2c(Br)ccc3ccc(-c4nnc5ccccn45)nc23)C1` (stereo not drawn) [Example 25, 2-([1,2,4]triazolo[4,3-a]pyridin-3-yl)-7-bromo-8-(3-methylpiperidin-1-yl)quinoline], for which the IC50 on PIM-1 was 128 nM; in assay [1], 3020 nM.
